# Experimental data from patent US20130156934A1, “MICROCAPSULES BY COACERVATION CONTAINING A PHARMACEUTICAL INCORPORATED IN THE COATING POLYMER” (APTALIS PHARMA LIMITED, priority 2003, published 2013).
# Experiments:
# [1] = Dissolution test according to USP 26 at pH 1.2; format: physicochemical; settings: caffeine
# Protocol: The microcapsutes obtained, when analysed with an electronic microscope (FIG. 3), show a distribution of the particles of the active principle within the polymeric membrane in the form of solid particles that are prevalently disposed at the interface between the polymer and the core. […] Dissolution test was performed according to USP 26.
# [2] = Dissolution test according to USP 26 at pH 6.8; format: physicochemical
# Protocol: A dissolution test is carried out on the microcapsules thus obtained comparing them with anhydrous theophylline in crystalline form.
# The dissolution test was performed according to USP 26.
# A dissolution test is carried out on the microcapsules obtained in Examples 5 and 6 according to the method previously described for Example 4
# Dissolution test was performed according to USP 26
# A dissolution test is carried out on the microcapsules thus obtained compared to fluoxetine raw material.
# Dissolution test was performed according to USP 26.
structure (smiles),measurement,setting,value
Cn1c(=O)c2c(ncn2C)n(C)c1=O [Caffeine],"Dissolution % at pH 1.2, 60 min",[1],100%
Cn1c(=O)c2[nH]cnc2n(C)c1=O [Anhydrous Theophylline],"Dissolution % at pH 6.8, 5 min","[2]; theophylline, USP 26",65%
same,"Dissolution % at pH 6.8, 10 min","[2]; theophylline, Table of Example 7, lower head",100%
same,"Dissolution % at pH 6.8, 15 min","[2]; 15 min, theophylline, USP 26",100%
CNCCC(Oc1ccc(C(F)(F)F)cc1)c1ccccc1 (stereo not shown) [Fluoxetine],"Dissolution % at pH 6.8, 5 min","[2]; fluoxetine, USP 26",55%
same,"Dissolution % at pH 6.8, 10 min","[2]; fluoxetine, USP 26",75%
same,"Dissolution % at pH 6.8, 20 min","[2]; 20 min, fluoxetine, USP 26",100%
